Values joined by “and” are separate entries in the source; they are usually repeats but may differ in a detail not shown here. Equal values may be shown once. Toxic doses and inconclusive results are not listed.
Test system: BDF1 mice, P388 leukemia ip, median survival T/C
Experiment: NCI In Vivo Anticancer Drug Screen. Data for tumor model P388 Leukemia (intraperitoneal) in B6D2F1 (BDF1) mice
Settings: endpoint: median survival time, higher = longer survival
Procedure, shortened: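 Survival ratio, drug arm over vehicle arm, in mice with a transplanted tumour.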

[1] = dose: 100.0 mg/kg/injection, schedule: Q01DX009 (ip), vehicle: saline with Tween-80
[2] = dose: 50.0 mg/kg/injection, schedule: Q01DX009 (ip), vehicle: saline
[3] = dose: 100.0 mg/kg/injection, schedule: Q01DX009 (ip), vehicle: saline
[4] = dose: 33.0 mg/kg/injection, schedule: Q04DX003 (ip), vehicle: saline with Tween-80
[5] = dose: 50.0 mg/kg/injection, schedule: Q04DX003 (ip), vehicle: saline with Tween-80
[6] = dose: 4.5 mg/kg/injection, schedule: Q01DX009 (ip), vehicle: Klucel (hydroxypropylcellulose) (HPC)
[7] = dose: 50.0 mg/kg/injection, schedule: Q01DX009 (ip), vehicle: saline with Tween-80

Which T/C (dose: 0.1 micrograms/kg/injection, schedule: Q01DX009 (ip), vehicle: saline + alcohol) does the source give for COc1cc2cc(c1Cl)NC(=O)CC(OC(=O)C(C)N(C)C(C)=O)C1(C)OC1C(C)C1CC(O)(NC(=O)O1)C(OC)C=C/C=C(\C)C2 (centres undefined) here?
Its T/C is 120 % of control.

And the T/C (dose: 0.2 micrograms/kg/injection, schedule: Q01DX009 (ip), vehicle: saline + alcohol)?
Its T/C is 110 % of control.

What about the T/C (dose: 0.4 micrograms/kg/injection, schedule: Q01DX009 (ip), vehicle: saline + alcohol) of the same molecule?
Its T/C is 115 % of control.

What about the T/C (dose: 0.8 micrograms/kg/injection, schedule: Q01DX009 (ip), vehicle: saline + alcohol) of the same molecule?
Its T/C is 110 % of control.

And the T/C (dose: 6.2 micrograms/kg/injection, schedule: Q01DX009 (ip), vehicle: saline + alcohol)?
The T/C was 170 % of control.

And the T/C (dose: 12.5 micrograms/kg/injection, schedule: Q01DX009 (ip), vehicle: saline + alcohol)?
The T/C was 120 % of control.

And the T/C (dose: 25.0 micrograms/kg/injection, schedule: Q01DX009 (ip), vehicle: saline + alcohol)?
The T/C was 185 % of control.

And the T/C (dose: 50.0 micrograms/kg/injection, schedule: Q01DX009 (ip), vehicle: saline + alcohol)?
Its T/C is 120 % of control.

For CC1(C(N)=O)OCCO1, which T/C (dose: 100.0 mg/kg/injection, schedule: Q04DX003 (ip), vehicle: saline) is on record?
The T/C was 100 % of control.

What about the T/C (dose: 200.0 mg/kg/injection, schedule: Q04DX003 (ip), vehicle: saline) of the same molecule?
Its T/C is 95 % of control.

And the T/C (dose: 400.0 mg/kg/injection, schedule: Q04DX003 (ip), vehicle: saline)?
The T/C was 95 % of control.

For COc1cc(Nc2ncnc(N)c2[N+](=O)[O-])cc(OC)c1OC, which T/C (dose: 100.0 mg/kg/injection, schedule: Q01DX001 (ip), vehicle: saline with Tween-80) is on record?
Its T/C is 87 % of control.

And the T/C (dose: 400.0 mg/kg/injection, schedule: Q01DX001 (ip), vehicle: saline with Tween-80)?
Its T/C is 87 % of control.

For O=C(Nc1ncn[nH]1)C(=O)Nc1ncn[nH]1, which T/C [1] is on record?
The T/C was 102 % of control.

What about the T/C (dose: 200.0 mg/kg/injection, schedule: Q01DX009 (ip), vehicle: saline with Tween-80) of the same molecule?
The T/C was 100 % of control.

How did the T/C (dose: 50.0 mg/kg/injection, schedule: Q01DX009 (ip), vehicle: other) turn out when CN(C)CNc1ncnc2onc(-c3ccccc3)c12 was run?
Its T/C is 100 % of control.

What about the T/C (dose: 100.0 mg/kg/injection, schedule: Q01DX009 (ip), vehicle: other) of the same molecule?
The T/C was 102 % of control.

For N=c1scc(CC(=O)O)n1N, which T/C [2] is on record?
The T/C was 92 % of control.

And the T/C [3]?
Its T/C is 108 % of control.

What about the T/C (dose: 200.0 mg/kg/injection, schedule: Q01DX009 (ip), vehicle: saline) of the same molecule?
The T/C was 92 % of control.

For CC(C)(C)c1cc2c3c(c1)C(C)(C)OS3(C)(=O)OC2(C)C, which T/C (dose: 12.5 mg/kg/injection, schedule: Q04DX002 (ip), vehicle: saline with Tween-80) is on record?
The T/C was 93 % of control.

What about the T/C (dose: 25.0 mg/kg/injection, schedule: Q04DX002 (ip), vehicle: saline with Tween-80) of the same molecule?
Its T/C is 107 % of control.

What about the T/C (dose: 50.0 mg/kg/injection, schedule: Q04DX002 (ip), vehicle: saline with Tween-80) of the same molecule?
Its T/C is 97 % of control and 98 % of control.

How did the T/C (dose: 6.25 mg/kg/injection, schedule: Q04DX003 (ip), vehicle: saline with Tween-80) turn out when C1CCCC(NC2=NCCO2)CC1 was run?
The T/C was 100 % of control.

What about the T/C (dose: 12.5 mg/kg/injection, schedule: Q04DX003 (ip), vehicle: saline with Tween-80) of the same molecule?
The T/C was 100 % of control.

What about the T/C (dose: 25.0 mg/kg/injection, schedule: Q04DX003 (ip), vehicle: saline with Tween-80) of the same molecule?
Its T/C is 104 % of control.

What does the source list for COc1cc(C=Nc2cc(Br)cc(Br)c2)ccc1N(CCCl)CCCl?
T/C (dose: 18.75 mg/kg/injection, schedule: Q04DX003 (ip), vehicle: other): 204 % of control; T/C (dose: 22.0 mg/kg/injection, schedule: Q04DX003 (ip), vehicle: saline with Tween-80): 200 % of control; T/C [4]: 222 % of control; T/C (dose: 37.5 mg/kg/injection, schedule: Q04DX003 (ip), vehicle: other): 250 % of control; T/C [5]: 218 % of control; T/C (dose: 60.0 mg/kg/injection, schedule: Q04DX003 (ip), vehicle: saline with Tween-80): 272 % of control; T/C (dose: 75.0 mg/kg/injection, schedule: Q04DX003 (ip), vehicle: other): 250 % of control; T/C (dose: 100.0 mg/kg/injection, schedule: Q04DX003 (ip), vehicle: saline sonified): 154 % of control; T/C (dose: 200.0 mg/kg/injection, schedule: Q04DX003 (ip), vehicle: saline sonified): 263 % of control; T/C (dose: 400.0 mg/kg/injection, schedule: Q04DX003 (ip), vehicle: saline sonified): 118 % of control

With CCC1OCCN1C(C)C (centres undefined) as the molecule, how does the T/C [2] read?
Its T/C is 108 % of control.

And the T/C [3]?
The T/C was 108 % of control.

Which T/C (dose: 50.0 mg/kg/injection, schedule: Q01DX009 (ip), vehicle: water) does the source give for COc1ccc(CCO)cc1OC here?
Its T/C is 97 % of control.

And the T/C (dose: 100.0 mg/kg/injection, schedule: Q01DX009 (ip), vehicle: water)?
Its T/C is 100 % of control.

What about the T/C (dose: 100.0 mg/kg/injection, schedule: Q04DX003 (ip), vehicle: water) of the same molecule?
Its T/C is 99 % of control.

What about the T/C (dose: 200.0 mg/kg/injection, schedule: Q01DX009 (ip), vehicle: water) of the same molecule?
Its T/C is 96 % of control.

And the T/C (dose: 200.0 mg/kg/injection, schedule: Q04DX003 (ip), vehicle: water)?
Its T/C is 106 % of control.

What about the T/C (dose: 400.0 mg/kg/injection, schedule: Q01DX009 (ip), vehicle: water) of the same molecule?
Its T/C is 96 % of control.

With NC(CCSCc1ccc(N(CCCl)CCCl)cc1)C(=O)O (centres undefined) as the molecule, how does the T/C (dose: 2.0 mg/kg/injection, schedule: Q01DX009 (ip), vehicle: Klucel (hydroxypropylcellulose) (HPC)) read?
Its T/C is 163 % of control.

What about the T/C (dose: 3.0 mg/kg/injection, schedule: Q01DX009 (ip), vehicle: Klucel (hydroxypropylcellulose) (HPC)) of the same molecule?
The T/C was 186 % of control.

And the T/C [6]?
Its T/C is 190 % of control.

What about the T/C (dose: 5.0 mg/kg/injection, schedule: Q04DX003 (ip), vehicle: Klucel (hydroxypropylcellulose) (HPC)) of the same molecule?
The T/C was 169 % of control.

And the T/C (dose: 7.0 mg/kg/injection, schedule: Q01DX009 (ip), vehicle: Klucel (hydroxypropylcellulose) (HPC))?
The T/C was 183 % of control and 213 % of control.

What about the T/C (dose: 8.0 mg/kg/injection, schedule: Q04DX003 (ip), vehicle: Klucel (hydroxypropylcellulose) (HPC)) of the same molecule?
Its T/C is 184 % of control.

What about the T/C (dose: 11.0 mg/kg/injection, schedule: Q01DX009 (ip), vehicle: Klucel (hydroxypropylcellulose) (HPC)) of the same molecule?
The T/C was 212 % of control.

And the T/C (dose: 13.0 mg/kg/injection, schedule: Q04DX003 (ip), vehicle: Klucel (hydroxypropylcellulose) (HPC))?
Its T/C is 207 % of control.

What about the T/C (dose: 14.0 mg/kg/injection, schedule: Q04DX003 (ip), vehicle: alcohol) of the same molecule?
The T/C was 230 % of control.

And the T/C (dose: 17.0 mg/kg/injection, schedule: Q01DX009 (ip), vehicle: Klucel (hydroxypropylcellulose) (HPC))?
The T/C was 225 % of control and 272 % of control.

And the T/C (dose: 20.0 mg/kg/injection, schedule: Q04DX003 (ip), vehicle: Klucel (hydroxypropylcellulose) (HPC))?
Its T/C is 230 % of control and 204 % of control.

What about the T/C (dose: 21.0 mg/kg/injection, schedule: Q04DX003 (ip), vehicle: alcohol) of the same molecule?
Its T/C is 226 % of control.

And the T/C (dose: 25.0 mg/kg/injection, schedule: Q01DX009 (ip), vehicle: Klucel (hydroxypropylcellulose) (HPC))?
Its T/C is 272 % of control.

What about the T/C (dose: 30.0 mg/kg/injection, schedule: Q04DX003 (ip), vehicle: Klucel (hydroxypropylcellulose) (HPC)) of the same molecule?
Its T/C is 272 % of control.

And the T/C [4]?
The T/C was 168 % of control and 213 % of control.

And the T/C (dose: 37.0 mg/kg/injection, schedule: Q01DX009 (ip), vehicle: Klucel (hydroxypropylcellulose) (HPC))?
Its T/C is 272 % of control.

What about the T/C (dose: 45.0 mg/kg/injection, schedule: Q04DX003 (ip), vehicle: Klucel (hydroxypropylcellulose) (HPC)) of the same molecule?
The T/C was 268 % of control.

What about the T/C (dose: 50.0 mg/kg/injection, schedule: Q01DX009 (ip), vehicle: Klucel (hydroxypropylcellulose) (HPC)) of the same molecule?
The T/C was 89 % of control.

And the T/C [5]?
The T/C was 227 % of control and 272 % of control.

And the T/C (dose: 67.0 mg/kg/injection, schedule: Q04DX003 (ip), vehicle: Klucel (hydroxypropylcellulose) (HPC))?
The T/C was 230 % of control.

And the T/C (dose: 75.0 mg/kg/injection, schedule: Q04DX003 (ip), vehicle: saline with Tween-80)?
The T/C was 272 % of control and 190 % of control.

What about the T/C (dose: 100.0 mg/kg/injection, schedule: Q04DX003 (ip), vehicle: Klucel (hydroxypropylcellulose) (HPC)) of the same molecule?
Its T/C is 230 % of control and 250 % of control.

And the T/C (dose: 150.0 mg/kg/injection, schedule: Q04DX003 (ip), vehicle: Klucel (hydroxypropylcellulose) (HPC))?
Its T/C is 123 % of control.

What about the T/C (dose: 375.0 micrograms/kg/injection, schedule: Q04DX003 (ip), vehicle: saline with Tween-80) of the same molecule?
The T/C was 120 % of control.

COc1ccc2c(c1)CC1NCCc3cc4c(c-2c31)OCO4 (centres undefined) was tested. Which T/C [7] did it give?
The T/C was 114 % of control.

What about the T/C [1] of the same molecule?
Its T/C is 97 % of control.

How did the T/C (dose: 12.5 mg/kg/injection, schedule: Q01DX009 (ip), vehicle: saline with Tween-80) turn out when CSC(=S)N/N=C(\C)C1CCCC[N-]1.[Cl][Zn][Cl] (centres undefined) was run?
Its T/C is 105 % of control.

And the T/C (dose: 25.0 mg/kg/injection, schedule: Q01DX009 (ip), vehicle: saline with Tween-80)?
Its T/C is 119 % of control.

And the T/C [7]?
The T/C was 118 % of control.

What does the source list for C=C(C)C(=O)OC1CC2=CC(CC3(C)OC3C3OC(=O)C(=C)C13)OC2=O (centres undefined)?
T/C [6]: 101 % of control; T/C (dose: 18.0 mg/kg/injection, schedule: Q01DX009 (ip), vehicle: Klucel (hydroxypropylcellulose) (HPC)): 106 % of control; T/C (dose: 36.0 mg/kg/injection, schedule: Q01DX009 (ip), vehicle: Klucel (hydroxypropylcellulose) (HPC)): 117 % of control

Which results are given for O=C(CBr)c1ccc(I)cc1?
T/C (dose: 13.0 mg/kg/injection, schedule: Q01DX010 (ip), vehicle: saline): 109 % of control; T/C (dose: 26.0 mg/kg/injection, schedule: Q01DX010 (ip), vehicle: saline): 109 % of control; T/C (dose: 43.0 mg/kg/injection, schedule: Q01DX010 (ip), vehicle: saline): 90 % of control
